Experimental data: patent publication US4567201A, “Diphenoxypropane derivatives and compositions of antiasthmatic and antiinflammatory agents thereof” (Takeda Chemical Industries, Ltd., priority 1981, dated 1986)
Read-outs that look alike come from different tables or passages of the source. Values belong to the compound of their own block, whether it stands above or below them.

Legend:
[1] = tested on: leukotriene D4 (LTD4)-induced contraction of the guinea pig ileum; experiment: Anti-SRS-A activity: inhibition of LTD4-induced contraction of guinea pig ileum; conditions: 50% inhibition of LTD4-induced contraction (60-70% of maximum contraction), drug added 1 minute before LTD4
Source text: The present inventors studied the antagonistic action of compound (I)-A against SRS-A using a synthetic LTD4 in the following manner.
The inhibitory effect of the drug on the contractile response (60-70% of maximum contraction) of the ileum of guinea pig (body weight 300-350 g, female and male) to leukotriene D4 (LTD4) was investigated. In Tyrode solution containing atropine (10^-7 M) and mepyramine (10^-6 M), 3×10^-10 or 10^-9 M of LTD4 was repeatedly permitted to act on the guinea pig ileum and after the amplitude of contraction had become constant, a solution of the test drug was added to a final concentration of 10^-9 to 10^-4 M. After 1 minute, the same concentration of LTD4 was further added and the anti-SRS-A activity of the drug was calculated from the change in contraction amplitude by means of the following equation. [formula]
To obtain the IC50 value, the mole concentration of the drug showing a 50% inhibition of the contractile response was determined from plots on a graph.
The drug was used as dissolved in dimethyl sulfoxide. The solvent was used in an amount less than 1% which would not exert any influence on the ileum.

[2] = tested on: antigen-induced bronchoconstriction; experiment: Antigen-induced bronchoconstriction in sensitized guinea pigs; type: in vivo, guinea pig (Hartley strain); conditions: for % Inhibition: 2 minutes prior to antigen (EA 1 mg/kg i.v.), one minute after antigen; for minimal effective dose: Cavia porcellus, iv, 2 minutes prior to antigen administration, read-out: minimum effective dose; for inhibitory effect on the antigen-induced bronchoconstriction compared with Control compound-1 (in words): i.v., 2 minutes prior to antigen
Protocol: According to the method of Orange and Moore [Orange, R. P. and Moore, E. G., Journal of Immunology, 116, 392-397 (1976)], Hartley-strain male guinea pigs weighing about 350 g were sensitized by intraperitoneal administration of 1 ml of an emulsion composed of 0.5 ml of physiological saline containing 1 mg of egg alubumin (EA) and 0.5 ml of Freund's complete adjuvant (Difco, USA). Three weeks after the sensitization, the serum antibody levels in the sensitized guinea pigs were determined by the 3-hour PCA reaction in guinea pigs and those guinea pigs that gave positive results in the PCA reaction with 1,000-fold diluted serum samples therefrom were used as the sensitized aminals. Using the Konzett-Rossler method as mentioned under the above paragraph (i), the bronchoconstriction due to the antigen-antibody reaction was induced by intravenous administration of 1 mg/kg of the antigen EA instead of LTD4, and recorded.
The bronchoconstriction in the control group as induced by antigen administration 2 minutes after the intravenous administration of physiological saline reached a maximum one minute after the intravenous administration of the antigen. Gradual recovery followed and the pretreatment state was almost restored in 15 minutes after the induction. Repeated experiments using 6 animals per group gave mean degrees of maximum bronchoconstriction (one-minute values) of 72.8-83.3% as compared with the state of complete obstruction (100%). The test compounds (I)-B-1, (I)-B-2 and Control compound-1 were each intravenously administered 2 minutes prior to antigen administration and the inhibitory effect on the bronchoconstriction was examined. The minimum effective doses were 5, 5 and 20 mg/kg, respectively, and the corresponding inhibition percentages were 51, 52 and 64%, respectively.
The test compounds were intravenously administered 2 minutes prior to
intravenous administration of the antigen.
Each value was calculated from the volume (in percentage) of air
overflowing from the respiratory tract at the time when the response was
maximal, i.e. one minute after administration of the antigen.

Acute toxicity in mice = type: in vivo, mouse (Jcl:ICR strain); conditions: 500 mg/kg oral; for Autopsy findings: after 7 days; for symptoms attributable to compound after oral administration: male mice
Protocol: Five 5-week-old male mice of Jcl:ICR strain, weighing 26.0 to 30.5 g, were used. Compound (I)-A-1 was suspended in a 5% solution of gum arabic and administered orally by gastric gavage at the level of 0.2 ml per 10 grams body weight.
Five 5-week-old male mice of Jcl:ICR strain, weighing 26.0 to 30.5 g, were used. Compound (I)-B-1 or (I)-B-2 was suspended in a 5% solution of gum arabic and administered orally by gastric gavage at the level of 0.2 ml per 10 grams body weight.

[3] = tested on: bronchoconstriction due to leukotriene D4 (LTD4); experiment: Inhibition of bronchoconstriction due to intravenous LTD4 in guinea pigs (Konzett-Rossler); type: in vivo, guinea pig (Hartley strain); conditions: for % Inhibition, Experiment 1: 2 minutes before LTD4 10 μg/kg i.v.; for % Inhibition, Experiment 1 / % Inhibition, Experiment 2: 30 seconds after LTD4; for % Inhibition, Experiment 2: 30 minutes before LTD4 10 μg/kg i.v.; for minimal effective dose: Cavia porcellus, iv, dose causing statistically significant difference vs control group, significance level <5%; for inhibitory effect upon the bronchoconstriction compared with Control compound-1 (in words): LTD4, i.v.
Protocol: Guinea pigs of Hartley strain, both male and female, with body weights about 400 g were assigned to groups of 6 individuals, and the bronchoconstriction due to LTD4 were measured according to the method of Konzett-Rossler, [Konzett, H. and Rossler, R.: Naunyn-Schmiedebergs Archiv Fur Experimentelle Pathologie und Pharmakologie 195, 71-74 (1940)]. Each guinea pig was fixed in supine position under urethane anesthesia (1.5 g/kg, intraperitoneal) and the trachea was incised and connected to an artificial respiration apparatus, Rodent Respirator Model 680 [Harvard Apparatus Company, U.S.A.] via a cannula. The branch tube of this tracheal cannula was connected to Bronchospasm Transducer Model 7020 [Ugobasil Biological Research Apparatus, Italy]. Under the conditions of 5 to 7 ml of air per stroke, 70 strokes per minute and a lung loading pressure of 10 cmH2 O, the volume of overflowing air was recorded on Rectigraph-8S (Sanei Sokki Ltd., Japan) via a transducer. After administration of gallamine triethiodide (1 mg/kg, i.v.), 10 μ g/kg of histamine.2HCl was intravenously administered to investigate the response of the animal. Then, a solution of LTD4 in physiological saline (10 μg/kg) was intravenously administered and the bronchoconstriction elicited thereby was recorded for 15 minutes. Two minutes before LTD4 loading, compound (I)-A-1 was intravenously administered in a volume of 0.1 ml per 100 g body weight. Compound (I)-A-1 and LTD4 were administered through a cannula inserted into the jugular vein.
The compound (I)-A-1 was used as dissolved in physiological saline containing sodium hydrogen carbonate, and LTD4 was taken from a stock stored in methanol (1 mg/1 ml methanol) at -70° C.
The bronchoconstriction induced by intravenous administration of 10 μg/kg of LTD4 as given 2 minutes after the administration of physiological saline was maximal at the time of 30 seconds after the administration of LTD4 and, since then, was rapidly attenuated to about 50% at the time of 2 minutes but lasted till 15 minutes. Assuming that the response at complete obstruction is 100%, the values at 30 seconds and 15 minutes were 47.4±6.9% (n=6, Mean±S.E.) and 19.4±2.8% (Mean±S.E.), respectively (S.E.: standard error).
Then the present inventors studied the antagonistic action of the compound (I)-B against SRS-A using a synthetic LTD4 in the manner described on the compound (I)-A.
In each case, the bronchoconstriction following intravenous administration of 10 μg/kg of LTD4 at 2 or 30 minutes after the administration of physiological saline reached a maximum 30 seconds after the administration of LTD4, and then decreased to about 50% at 2 minutes after the administration of LTD4. The response continued for 15 minutes after the administration of LTD4. Repeated experiments using 6 animals per group gave mean degrees of maximum bronchoconstriction (30-second values) of 52.2-67.1% and 54.7-70.1%, respectively, as compared with the state of complete obstruction (100%). In experiment 1, the test compounds (I)-B-1, (I)-B-2 and Control compound-1 were each intravenously administered at two minutes before the administration of LTD4 and inhibitory effect on the bronchoconstriction was examined. The minimum effective doses (causing statistically significant differences as compared with the control group; significance level <5%) were 0.313, 0.313 and 5 mg/kg, respectively. The corresponding inhibition percentages were 41, 52 and 56%, respectively. In experiment 2, the test compounds were intravenously administered 30 minutes before the administration of LTD4 and the effect on the above response was examined. The minimum effective doses were 5, 5, and 20 mg/kg, respectively.
The test compounds were intravenously administered 2 minutes before the
intravenous administration of 10 μg/kg of LTD4.
The test compounds were intravenously administered 30 minutes before the
Each value was calculated from the volume (in percentage) of air […]

[4] = 5 mg/kg i.v., p<0.001 for (I)-B-1, p<0.01 for (I)-B-2
[5] = 1.25 mg/kg i.v., **P<0.01 for (I)-B-1 and (I)-B-2
[6] = 5 mg/kg i.v., P<0.001 for (I)-B-1 and Control compound-1, P<0.01 for (I)-B-2
[7] = 5 mg/kg i.v., **P<0.01 for (I)-B-1 and (I)-B-2
[8] = 20 mg/kg i.v., P<0.001 for (I)-B-1 and (I)-B-2, P<0.01 for Control compound-1
[9] = 30 minutes before LTD4, read-out: minimum effective dose, experiment 2
[10] = two minutes before LTD4, read-out: minimum effective dose, experiment 1

Compound: CCCc1c(OCC(O)COc2ccc(C(=O)O)cc2Cl)ccc(C(C)=O)c1O (stereo not shown) [Compound (I)-B-1, 4-[3-(4-acetyl-3-hydroxy-2-n-propylphenoxy)-2-hydroxypropoxy]-3-chlorobenzoic acid]
- % Inhibition ([2]; 1.25 mg/kg i.v.): 6%
- % Inhibition [2, 4]: 51%
- % Inhibition ([2]; 20 mg/kg i.v., ***p<0.001): 75%
- minimal effective dose [2]: 5 mg/kg
- inhibitory effect on the antigen-induced bronchoconstriction compared with Control compound-1 (in words) [2]: superior to Control compound-1
- Autopsy findings (Acute toxicity in mice): did not reveal any abnormalities
- symptoms attributable to compound after oral administration (Acute toxicity in mice): no symptoms
- % Inhibition, Experiment 1 ([3]; 0.313 mg/kg i.v., *P<0.05): 41%
- % Inhibition, Experiment 1 [3, 5]: 51%
- % Inhibition, Experiment 1 [3, 6]: 84%
- % Inhibition, Experiment 2 [3, 7]: 42%
- % Inhibition, Experiment 2 [3, 8]: 96%
- minimal effective dose [3, 9]: 5 mg/kg
- minimal effective dose [3, 10]: 0.313 mg/kg
- inhibitory effect upon the bronchoconstriction compared with Control compound-1 (in words) [3]: superior to Control compound-1

Compound: CCCc1c(OCCCOc2ccc(C(=O)O)cc2Cl)ccc(C(C)=O)c1O [Compound (I)-B-2, 4-[3-(4-acetyl-3-hydroxy-2-n-propylphenoxy)propoxy]-3-chlorobenzoic acid]
- % Inhibition ([2]; 1.25 mg/kg i.v.): 20%
- % Inhibition [2, 4]: 52%
- % Inhibition ([2]; 20 mg/kg i.v., ***p<0.001): 88%
- minimal effective dose [2]: 5 mg/kg
- inhibitory effect on the antigen-induced bronchoconstriction compared with Control compound-1 (in words) [2]: superior to Control compound-1
- Autopsy findings (Acute toxicity in mice): did not reveal any abnormalities
- symptoms attributable to compound after oral administration (Acute toxicity in mice): no symptoms
- % Inhibition, Experiment 1 ([3]; 0.313 mg/kg i.v., *P<0.05): 52%
- % Inhibition, Experiment 1 [3, 5]: 77%
- % Inhibition, Experiment 2 ([3]; 1.25 mg/kg i.v.): 10%
- % Inhibition, Experiment 1 [3, 6]: 79%
- % Inhibition, Experiment 2 [3, 7]: 42%
- % Inhibition, Experiment 2 [3, 8]: 66%
- minimal effective dose [3, 9]: 5 mg/kg
- minimal effective dose [3, 10]: 0.313 mg/kg
- inhibitory effect upon the bronchoconstriction compared with Control compound-1 (in words) [3]: superior to Control compound-1

Compound: CCCc1c(OCCCOc2ccc(-c3nnn[nH]3)cc2Cl)ccc(C(C)=O)c1O [Compound (I)-A-3, 1-(4-acetyl-3-hydroxy-2-n-propylphenoxy)-3-[2-chloro-4-(tetrazol-5-yl)phenoxy]propane]
- IC50 [1]: 0.07 µM

Compound: CCCc1c(OCCCOc2ccc(C(=O)O)c(O)c2)ccc(C(C)=O)c1O [Control compound-1, reference compound]
- % Inhibition ([2]; 1.25 mg/kg i.v.): 12%
- % Inhibition [2, 4]: 16%
- % Inhibition ([2]; 20 mg/kg i.v., ***p<0.001): 64%
- minimal effective dose [2]: 20 mg/kg
- IC50 [1]: 0.42 µM
- % Inhibition, Experiment 1 [3, 5]: 14%
- % Inhibition, Experiment 1 [3, 6]: 56%
- % Inhibition, Experiment 2 [3, 7]: 14%
- % Inhibition, Experiment 1 ([3]; 20 mg/kg i.v., ***P<0.001): 87%
- % Inhibition, Experiment 2 [3, 8]: 35%
- minimal effective dose [3, 9]: 20 mg/kg
- minimal effective dose [3, 10]: 5 mg/kg

Further lines, results first:

- IC50 [1]: 0.019 µM
Compound: CCCc1c(OCC(O)COc2ccc(-c3nn[nH]n3)cc2Br)ccc(C(C)=O)c1O (stereo not shown) [Compound (I)-A-2, 2-hydroxy-3-propyl-4-[2-hydroxy-3-[2-bromo-4-(tetrazol-5-yl)phenoxy]propoxy]acetophenone]

- IC50 [1]: 0.68 µM
Compound: CCCc1c(OCCCOc2cccc(-c3nn[nH]n3)c2)ccc(C(C)=O)c1O [Control compound-2, reference compound]
